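Values below derive from 48-hour exposures of cells grown in 96-well plates, with endpoints linearly interpolated between the two concentrations bracketing the appropriate inhibition level. GI50 marks 50% less growth.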 Activity calls are given as the source filed them. No stated cut-off is given here; in the data, active = GI50 up to about 1.1 µM and inactive = higher.
Columns and labels:
Assay in all cases: NCI-60 cell line screen, 48 h
[1] = system: OVCAR-4
[2] = system: SK-OV-3
[3] = system: NCI-H23
[4] = system: SNB-75
[5] = system: UACC-62
[6] = system: HOP-62
[7] = system: KM12
[8] = system: HOP-92
[9] = system: MCF7
[10] = system: SK-MEL-2
[11] = system: HL-60
[12] = system: NCI-H522
[13] = system: HT-29
[14] = system: ACHN
[15] = system: OVCAR-8
[16] = system: HCT-116
[17] = system: SN12C
[18] = system: SF-295
[19] = system: HCC 2998
[20] = system: A549
[21] = system: LOX IMVI
[22] = system: RPMI-8226
[23] = system: SF-268
[24] = system: SK-MEL-28
[25] = system: CAKI-1
[26] = system: NCI-H460
[27] = system: U-251
[28] = system: T47D
[29] = system: OVCAR-3
[30] = system: OVCAR-5
[31] = system: M14
[32] = system: MDA-N
[33] = system: MOLT-4
[34] = system: COLO 205
[35] = system: UO-31
[36] = system: UACC-257
[37] = system: PC-3
[38] = system: SF-539
[39] = system: BT-549
[40] = system: TK-10
[41] = system: CCRF-CEM
[42] = system: HCT-15
[43] = system: NCI-H226
[44] = system: NCI/ADR-RES
[45] = system: SW-620
[46] = system: SK-MEL-5
[47] = system: Hs-578T
[48] = system: SNB-19
[49] = system: Malme-3M
[50] = system: 786-0
[51] = system: EKVX
[52] = system: MDA-MB-435
[53] = system: IGROV-1
[54] = system: DU-145
[55] = system: MDA-MB-231
[56] = system: K562
[57] = system: RXF 393
[58] = system: SR

## Clc1ccc(/C=N/c2ccc(Oc3ccc(Cl)cc3)c(Cl)c2)cc1
[1]
  GI50: 25.3 µM (inactive)
[2]
  GI50: 27 µM (inactive)
[3]
  GI50: 23.5 µM (inactive)
[4]
  GI50: 22.5 µM (inactive)
[5]
  GI50: 19.8 µM (inactive)
[6]
  GI50: 19.4 µM (inactive)
[7]
  GI50: 24.8 µM (inactive)
[8]
  GI50: 19.4 µM (inactive)
[9]
  GI50: 30.8 µM (inactive)
[10]
  GI50: 22.1 µM (inactive)
[11]
  GI50: 23.3 µM (inactive)
[12]
  GI50: 14.3 µM (inactive)
[13]
  GI50: 23.7 µM (inactive)
[14]
  GI50: 34.1 µM (inactive)
[15]
  GI50: 29.4 µM (inactive)
[16]
  GI50: 17.9 µM (inactive)
[17]
  GI50: 19.5 µM (inactive)
[18]
  GI50: 18.8 µM (inactive)
[19]
  GI50: 21.5 µM (inactive)
[20]
  GI50: 22.3 µM (inactive)
[21]
  GI50: 18.8 µM (inactive)
[22]
  GI50: 28.4 µM (inactive)
[23]
  GI50: 17.5 µM (inactive)
[24]
  GI50: 23.6 µM (inactive)
[25]
  GI50: 6.41 µM (inactive)
[26]
  GI50: 21.5 µM (inactive)
[27]
  GI50: 23.9 µM (inactive)
[28]
  GI50: 19.5 µM (inactive)
[29]
  GI50: 16.9 µM (inactive)
[30]
  GI50: > 100 µM (inactive)
[31]
  GI50: 21.1 µM (inactive)
[32]
  GI50: 19.1 µM (inactive)
[33]
  GI50: 25.5 µM (inactive)
[34]
  GI50: 21.6 µM (inactive)
[35]
  GI50: 11.5 µM (inactive)
[36]
  GI50: 30.9 µM (inactive)
[37]
  GI50: 22.1 µM (inactive)
[38]
  GI50: 17.2 µM (inactive)
[39]
  GI50: 21.7 µM (inactive)
[40]
  GI50: 50.7 µM (inactive)
[41]
  GI50: 15.8 µM (inactive)
[42]
  GI50: 21.8 µM
[43]
  GI50: 35.3 µM (inactive)
[44]
  GI50: 20.8 µM (inactive)
[45]
  GI50: 31 µM (inactive)
[46]
  GI50: 22.3 µM (inactive)
[47]
  GI50: 21.5 µM (inactive)
[48]
  GI50: 23 µM (inactive)
[49]
  GI50: 20.2 µM (inactive)
[50]
  GI50: 17.9 µM (inactive)
[51]
  GI50: 27.8 µM (inactive)
[52]
  GI50: 29.7 µM (inactive)
[53]
  GI50: 38.5 µM (inactive)
[54]
  GI50: 30.8 µM (inactive)
[55]
  GI50: 22 µM (inactive)

## COC(=O)C1CCOC(C)N1C(=O)OC(C)(C)C (configuration not stated)
[1]
  GI50: > 100 µM (inactive)
[2]
  GI50: > 100 µM (inactive)
[3]
  GI50: > 100 µM (inactive)
[4]
  GI50: > 100 µM (inactive)
[5]
  GI50: > 100 µM (inactive)
[6]
  GI50: > 100 µM (inactive)
[56]
  GI50: > 100 µM (inactive)
[7]
  GI50: > 100 µM (inactive)
[9]
  GI50: > 100 µM (inactive)
[57]
  GI50: > 100 µM (inactive)
[10]
  GI50: > 100 µM (inactive)
[11]
  GI50: > 100 µM (inactive)
[12]
  GI50: > 100 µM (inactive)
[13]
  GI50: > 100 µM (inactive)
[14]
  GI50: > 100 µM (inactive)
[15]
  GI50: > 100 µM (inactive)
[16]
  GI50: > 100 µM (inactive)
[17]
  GI50: > 100 µM (inactive)
[18]
  GI50: > 100 µM (inactive)
[19]
  GI50: > 100 µM (inactive)
[20]
  GI50: > 100 µM (inactive)
[21]
  GI50: > 100 µM (inactive)
[22]
  GI50: > 100 µM (inactive)
[23]
  GI50: > 100 µM (inactive)
[24]
  GI50: > 100 µM (inactive)
[25]
  GI50: > 100 µM (inactive)
[26]
  GI50: > 100 µM (inactive)
[27]
  GI50: > 100 µM (inactive)
[28]
  GI50: > 100 µM (inactive)
[29]
  GI50: > 100 µM (inactive)
[30]
  GI50: > 100 µM (inactive)
[31]
  GI50: > 100 µM (inactive)
[32]
  GI50: > 100 µM (inactive)
[33]
  GI50: > 100 µM (inactive)
[34]
  GI50: > 100 µM (inactive)
[35]
  GI50: > 100 µM (inactive)
[36]
  GI50: > 100 µM (inactive)
[37]
  GI50: > 100 µM (inactive)
[38]
  GI50: > 100 µM (inactive)
[39]
  GI50: > 100 µM (inactive)
[40]
  GI50: > 100 µM (inactive)
[41]
  GI50: > 100 µM (inactive)
[42]
  GI50: > 100 µM
[43]
  GI50: > 100 µM (inactive)
[44]
  GI50: > 100 µM (inactive)
[45]
  GI50: > 100 µM (inactive)
[46]
  GI50: > 100 µM (inactive)
[47]
  GI50: > 100 µM (inactive)
[58]
  GI50: > 100 µM (inactive)
[48]
  GI50: > 100 µM (inactive)
[49]
  GI50: > 100 µM (inactive)
[50]
  GI50: > 100 µM (inactive)
[51]
  GI50: > 100 µM (inactive)
[52]
  GI50: > 100 µM (inactive)
[53]
  GI50: > 100 µM (inactive)
[54]
  GI50: > 100 µM (inactive)
[55]
  GI50: > 100 µM (inactive)
